According to US20240408114A1, “METHODS FOR PREVENTING AND TREATING ACUTE KIDNEY INJURY” (The Johns Hopkins University, priority 2021, published 2024):

Experiments:
[1] = tested on: cisplatin-induced AKI in mice; assay: Cisplatin-induced (nephrotoxic) AKI model: kidney function and histology; format: in vivo, mouse
Method: Given the significant protective outcomes in ischemic AKI, we subsequently tested the effect of glutamine blockade on a nephrotoxic AKI model, which is another common etiology of clinical AKI. After pretreatment with JHU083 or vehicle, 25 mg/kg of cisplatin was injected intraperitoneally. T cells were isolated and studied after 72 h after cisplatin treatment (FIG. 16A).
Cisplatin (cis-diammineplatinum II dichloride; Sigma-Aldrich, St. Louis, MO) was freshly dissolved into 0.9% saline (1 mg/mL) on the day of injection. The dissolved solution was incubated in water bath at 40° C. for 10 min to achieve complete dissolution. A single 25 mg/kg dose of cisplatin was injected intraperitoneally.
Blood samples were obtained at 0, 24, 48, and 72 h after IRI or cisplatin injection through tail vein collection. Plasma creatinine concentration was measured by Cobas Mira Plus automated analyzer system (Roche, Indianapolis, IN) with creatinine reagent (Pointe Scientific Inc, Canton, MI).
At 24 h after IRI and 72 h after cisplatin injection, mice were anesthetized with ketamine (130 mg/kg; VetOne, Boise, ID) and xylazine (7 mg/kg; Akorn) intraperitoneal injection. After exsanguination, kidneys were collected and fixed with 10% buffered formalin followed by paraffin embedding. Tissue sections were stained with hematoxylin and eosin. A renal pathologist scored necrotic tubules in a blinded fashion.
Glutamine antagonist, JHU083 was synthesized as previously described, Rais et al., 2016, and dissolved in 50 mM […] 4-(2-hydroxyethyl)-1-piperazineethanesulfonic acid (HEPES) buffered 0.9% saline. Aliquot stocks were stored at −80° C. and thawed right before injection. Before the IRI surgery or cisplatin injection, mice were administered 1.83 mg/kg JHU083 (equivalent to 1 mg/kg DON) or vehicle (50 mM HEPES buffered 0.9% saline) every other day via intraperitoneal injection. Following 4 consecutive dosages, mice underwent IRI surgery or cisplatin injection. The last additional dose was given at 24 h after IRI or cisplatin injection. […]

splenic T cells = assay: Splenic T cell phenotypes in post-IRI mice; format: in vivo, mouse; conditions: vs vehicle
Method: T cell proliferation assessed with Ki67 expression was reduced in CD4^+ and CD8^+ T cells from JHU083 treated post-ischemic kidneys (Ki67^+, CD4^+ T cells 58.7±2.9 vs 50.6±2.1%, P=0.035; CD8^+ T cells, 61.2±4.2% vs 48.4±4.1%, P=0.043) (FIG. 15). […] We also studied immunophenotypes of splenic T cells from post-IRI mice.
KMNCs were isolated according to our previously described Percoll density gradient protocol. Ascon et al., 2006. Briefly, decapsulated kidneys were immersed and incubated in collagenase D (2 mg/mL; Sigma-Aldrich) solution for 30 min at 37° C. Samples were strained through 70 µm cell strainer (BD Bioscience, Franklin Lakes, NJ), washed, and resuspended in 40% Percoll (GE Healthcare, Chicago, IL) followed by gentle overlaying onto 80% Percoll. After centrifugation at 1,500 g for 30 min in brake off mode at room temperature, KMNCs were collected from interface between 40% and 80% Percoll. […] Cells were counted on hemocytometer using trypan blue exclusion under a microscope.
Cells were washed once with phosphate buffered saline (PBS) and stained with viability dye Zombie NIR Fixable Viability (BioLegend, San Diego, CA) for 15 min at room temperature. […] Samples were analyzed by 4-laser Aurora spectral flow cytometer (Cytek, Fremont, CA). […]

CCOC(=O)[C@H](CCC(=O)C=[N+]=[N-])NC(=O)[C@@H](N)CC(C)C [JHU083]
plasma creatinine at 72 h ([1]; 72 h after cisplatin 25 mg/kg i.p., JHU083 pretreatment, vehicle 2.28±0.34, P=0.016): 1.17 ± 0.24 mg/dL
medullary necrotic tubules ([1]; 72 h after cisplatin, vehicle 57.1±3.7, P<0.001): 19.9±4.5%
cortical necrotic tubules ([1]; 72 h after cisplatin, vehicle 58.1±4.9, P=0.243): 20.9±7.0%
immunophenotypes of splenic CD4+ and CD8+ T cells (splenic T cells): increased naïve phenotypes with low CD44 and high CD62L expression
